Measurements published in BindingDB's records for doi:10.1021/acs.jmedchem.5b00354 (Florida Atlantic University, 2015).

Test: Inhibition of ADAM17 in human A549 cells assessed as potentiation of gefitinib-mediated inhibition of cell viability by measuring gefitinib IC50 at 40 uM incubated for 1 hr followed by gefitinib addition measured after 72 hrs by CellTiter-Glo assay (Rvb = 8.4 microM)

## O=C1NC[C@@H](Cc2ccc(O)cc2)N(C[C@@H]2CCCN2C[C@@H](Cc2ccc3ccccc3c2)N2C[C@H](Cc3ccc(O)cc3)N(CCC34CC5CC(CC(C5)C3)C4)C(=O)C2=O)C1=O
  IC50: 1.9 µM
